# Results taken from ChEMBL document CHEMBL1130043, “Chemometric methodologies in a quantitative structure-activity relationship study: the antibacterial activity of 6-aminoquinolones” (1997).
# Experiments:
# Type in all cases: functional
# Pseudomonas aeruginosa = assay: Antibacterial activity against Pseudomonas aeruginosa ATCC 9027(Gram negative) strain.
# Klebsiella pneumoniae = assay: Antibacterial activity against Klebsiella pneumoniae ATCC 10031 (Gram negative) strain.
# Enterococcus faecalis = assay: Antibacterial activity against Streptococcus faecalis LEP Br (Gram positive) strain.
# Shigella = assay: Antibacterial activity against Shigella enteritidis (Gram negative) strain.
# Staphylococcus aureus [1] = assay: Antibacterial activity against Staphylococcus aureus MPR 5 (Gram positive) strain.
# [2] = system: Staphylococcus epidermidis; assay: Antibacterial activity against Staphylococcus epidermidis CPHL A2 (Gram positive) strain, activity is expressed as log2MIC.
# Providencia stuartii = assay: Antibacterial activity against Providencia stuartii CNUR 5(Gram negative) strain.
# [3] = system: Staphylococcus epidermidis; assay: Antibacterial activity against Staphylococcus epidermidis HCF Berset C (Gram positive) strain.
# Staphylococcus aureus [4] = assay: Antibacterial activity against Staphylococcus aureus ATCC 6538 (Gram positive) strain.
# [5] = system: Acinetobacter calcoaceticus; assay: Antibacterial activity against Acinetobacter calcoaceticus OSMPV 113 (Gram negative) strain.
# Enterobacter cloacae = assay: Antibacterial activity against Enterobacter cloacae OMNFI 174 (Gram negative) strain.
# Escherichia coli [6] = assay: Antibacterial activity against Escherichia coli ATCC 8739(Gram negative) strain.
# Escherichia coli [7] = assay: Antibacterial activity against Escherichia coli ISF 432(Gram negative) strain.
SMILES,Log2 MIC (Pseudomonas aeruginosa),Log2 MIC (Klebsiella pneumoniae),Log2 MIC (Enterococcus faecalis),Log2 MIC (Shigella),Log2 MIC (Staphylococcus aureus [1]),Log2 MIC [2],Log2 MIC (Providencia stuartii),Log2 MIC [3],Log2 MIC (Staphylococcus aureus [4]),Log2 MIC [5],Log2 MIC (Enterobacter cloacae),Log2 MIC (Escherichia coli [6]),Log2 MIC (Escherichia coli [7])
Nc1cc2c(=O)c(C(=O)O)cn(C3CC3)c2c(F)c1N1CCSCC1,5,12,5,5,9,8,8,7,8,7,7,10,11
NCCN1CCN(c2cc3c(cc2N)c(=O)c(C(=O)O)cn3C2CC2)CC1,2,8,0,6,0,1,0,2,0,2,6,8,8
Nc1cc2c(=O)c(C(=O)O)cn(C3CC3)c2cc1N1CCCC1,0,9,0,3,0,0,0,0,0,0,4,9,9
Cc1c(N2CCNCC2)c(N)cc2c(=O)c(C(=O)O)cn(C3CC3)c12,7,12,3,12,5,5,6,4,6,6,11,12,12
CC(C)(C)n1cc(C(=O)O)c(=O)c2cc(N)c(N3CCN(c4ccccn4)CC3)cc21,0,9,3,1,7,7,0,6,7,7,1,8,8
CN1CCN(c2nc3c(cc2N)c(=O)c(C(=O)O)cn3C2CC2)CC1,6,12,0,10,5,5,6,5,5,5,10,10,12
